According to the NIST ThermoML archive (doi:10.1016/j.tca.2015.12.011):
Numbers after ± are expanded uncertainties.

Experiment: excess molar enthalpy (molar enthalpy of mixing); xn = mol fraction of the nth substance listed
Settings: 100 kPa, Liquid, Calvet calorimetry

Compound: [Li] [lithium] + [Ga]
- excess molar enthalpy (891 K, x1 = 0.7508): -17.2 ± 0.8 kJ/mol
- excess molar enthalpy (993 K, x1 = 0.1014): -5.8 ± 0.4 kJ/mol
- excess molar enthalpy (993 K, x1 = 0.2531): -13.5 ± 0.4 kJ/mol
- excess molar enthalpy (1018 K, x1 = 0.7505): -16.3 ± 0.6 kJ/mol
- excess molar enthalpy (1044 K, x1 = 0.4035): -19.4 ± 0.3 kJ/mol
- excess molar enthalpy (1044 K, x1 = 0.5023): -21.1 ± 0.5 kJ/mol
- excess molar enthalpy (1044 K, x1 = 0.6005): -21.1 ± 0.7 kJ/mol
